Data: patent publication US20250032590A1, “PARATHYROID HORMONE COMPOUNDS IN THE TREATMENT OF HYPOPARATHYROIDISM” (AMOLYT PHARMA, priority 2023, published 2025)
“Also recorded” adds a separate entry of the source. No end group written: not given here.

Key:
PTX mice = assay: Serum calcium after single dosing in HP PTX mouse model (Example 1); assay type: in vivo; settings: compared with PTH (1-34)
Excerpt: In FIG. 1, the black line indicates the impact of PTX in mice, resulting in serum calcium levels well below normal levels.

TPTX rats [1] = assay: Serum calcium and phosphate, 28-day daily sc dosing in HP TPTX rat model (Example 2); assay type: in vivo; settings: 7.7 μg/kg/day
Experimental: Thyroid-parathyroidectomized, or TPTX, rats were treated with daily subcutaneous injection of AZP-3601 at doses ranging from 3.8 μg/kg/day to 30.7 μg/kg/day. Treatment was continued for 28 days. […] The increase in calcium accumulated over time (over the first 15 to 21 days), but became more constant thereafter, indicating the development of a steady-state effect (FIG. 2). Due to the cumulative effect, lower doses of AZP-3601 were required to eventually increase blood calcium levels into the normal range as compared to the dose required with a single injection.

TPTX rats [2] = assay: Urinary calcium, repeated daily sc dosing in HP TPTX rat model (Example 4); assay type: in vivo; settings: 30.7 μg/kg/day
Experimental: To examine the effect of repeated dosing with AZP-3601 on urinary calcium levels, TPTX rats were treated with daily subcutaneous injection of AZP-3601 with doses ranging from 3.8 to 30.7 μg/kg/day. As additional controls, separate groups of TPTX rats received daily injections of either natural PTH (1-84) or the vehicle, and a group of normal (with intact thyroid and parathyroid glands, or sham) rats were injected with vehicle. […] The observed increase in urinary calcium excretion with the high dose was a normal kidney response to clear excess blood calcium (FIG. 4).

[3] = Plasma detectability after single injection in cynomolgus monkeys; assay type: in vivo, cynomolgus monkey
Experimental: To further examine how the potent and sustained biological activity induced by AZP-3601 could translate into potential clinical benefit for […] patients, its activity was examined in normal cynomolgus monkeys, a species much closer to humans and the most relevant for first in human dose-selection. Single injections of AZP-3601 were administered to normal cynomolgus monkeys. […] The dissociation between pharmacokinetic profile and pharmacodynamic effect is due to the short circulating half-life of AZP-3601 as opposed to the prolonged signaling caused by AZP-3601's potent interaction with the R^0 conformation of the PTH1 receptor.

Cynomolgus monkeys [4] = assay: 13-week daily sc study in non-human primates: ex-vivo BMD (DXA), bone histopathology (Example 8); design: species or system cynomolgus monkey; settings: Cynomolgus monkeys, 1, 2.5 or 10 μg/kg daily sc, 13 weeks
Experimental: (§1) To further examine the effect of chronic AZP-3601 treatment on bone, both 13-week and 39-week studies were conducted in non-human primates (NHP), which are considered a relevant species with regard to AZP-3601 effects on serum calcium. Groups of 3 or 4 Cynomolgus monkeys of each sex were given daily subcutaneous injections of either vehicle or AZP-3601 at doses of 1, 2.5 or 10 μg/kg for either 13 or 39 weeks, as outlined in Table 2.
• Ex-vivo bone mineral density (BMD) by dual-energy X-ray absorptiometry (DXA) at week 13; • Histopathological examination of bone at week 13.
(§2) At the end of the 13-week study, right femur, right tibia and the L4 lumbar vertebra were collected from 3 animals/group/sex and bone mineral density (BMD) was measured by dual-energy X-ray absorptiometry. The left femur was submitted to histopathological examination. […] In the 39-week study, blood samples were collected from 4 animals/group/sex prior to and during weeks 4, 8, 13, 26 and 39 of treatment for measurement of bone biomarkers. In-life BMD of left femur, left tibia and L4 lumbar vertebra was measured by quantitative computed tomography (qCT) prior to and during weeks 26 and 39 of treatment (FIGS. 9A, 9B, 9C, 9D, 9E and 9F). At the end of the treatment period, femurs were processed for histopathological examination.

Cynomolgus monkeys [5] = assay: 39-week daily sc study in non-human primates: bone biomarkers, BMD (qCT), histopathology (Example 8); assay type: in vivo, cynomolgus monkey
Experimental: as §1
• Serum bone biomarkers at baseline and weeks 4, 8, 13, 26 and 39; • In-life BMD by quantitative computed tomography (qCT) at baseline and weeks 26 and 39; • Histopathological examination of bone at week 39.
as §2
Prior to treatment, BMD was homogeneous among all groups for all the three bone sites examined.

[6] = system: subjects with hypoparathyroidism (HP); assay: Open-label multiple ascending dose study plus 2-month extension in subjects with hypoparathyroidism (Examples 10, 11); assay type: in vivo, human
Excerpt: Part C: Part C of the assessment was an open-label multiple ascending dose (MAD) study in male or female subjects with hypoparathyroidism (HP) who are on standard or care treatment (treatment with oral calcium and active vitamin D) to evaluate the safety and tolerability, PK, and PD of AZP-3601. Up to 2 cohorts of approximately 12 patients each were planned for this part of the study. Prior to the treatment period, there was an optimization period of up to 8 weeks during which doses of oral calcium and active vitamin D were adjusted to achieve a baseline target range of albumin-corrected serum calcium (7.8 to 9.0 mg/dL, ie, 1.95 to 2.25 mmol/L) and therefore ensuring a close baseline for all patients. During this optimization period, any serum 25-hydroxy vitamin D (native vitamin D) and/or magnesium deficiencies were corrected. During the treatment period, patients in Part C received AZP-3601 for 28 days as daily sc abdominal injections (with rotation of injection sites every dosing day). Doses of oral calcium and active vitamin D supplements were reduced during the initial 14 days of treatment while maintaining albumin-corrected serum calcium in the target range (7.8 to 9.0 mg/dL, ie, 1.95 to 2.25 mmol/L). Reductions of both oral calcium and active vitamin D supplements were performed using a staged approach until the active vitamin D dose were eliminated and the oral calcium dose were reduced to or below 500 mg/day. Based on animal data, serum calcium was expected to increase progressively following repeated administration of AZP-3601 and PD steady state was expected to be observed within the first 5 days of dosing. Staggered reductions of doses of oral calcium and active vitamin D supplements were therefore performed at near-steady state based on the predose albumin-corrected serum calcium value. The following treatments are administered in Part C in an open-label fashion: • Cohort C1: multiple sc doses of 20 mg AZP-3601 (n=12) qd from Day 1 to Day 28 (dose increase of AZP-3601 to 40 mg was allowed from Day 14 onwards) • Cohort C2: multiple sc doses of a fixed dose of 10 mg AZP-3601 (n=12) qd from Day 1 to Day 28 (dose of AZP-3601 may be increased at a fixed dose of 20 mg from Day 14 onwards)
During the extension phase, patients had their AZP-3601 dose increased in increments of 10 mg to a maximum dose of 60 mg (Cohort 1) and of 80 mg (Cohort 2).
The extension phase started immediately following Day 28 visit of the Main treatment period. Patients received AZP-3601 for 56 days (2 months) as daily sc injections from Day 29 onwards (with rotation of injection sites each day of administration). The goal was to optimize AZP-3601 dosing across a dose range while doses of oral calcium and active vitamin D were as low as safely possible and albumin-corrected serum calcium was maintained within the target range of 7.8 to 9.0 mg/dL (1.95 to 2.25 mmol/L). For patients who were taking minimal or no supplemental calcium (≤500 mg/day) and no vitamin D on Day 28, the AZP-3601 dose from the previous 14 days of treatment (Part C, Main Treatment Period) was maintained and adjusted when needed during the Extension Phase. For patients who were still taking active vitamin D and/or more than 500 mg/day of oral calcium on Day 28, a progressive reduction of supplements was carried out while increasing the dose of AZP-3601. […]

non-human primates = settings: 10.7 μg/kg or 42.7 μg/kg; cited from earlier work
[7] = Cynomolgus monkeys, 1, 2.5 or 10 μg/kg daily sc, weeks 4 to 39
[8] = HP subjects of both cohorts, 84 days
[9] = HP subjects, various bone sites, including patients with osteopenia

With “AVAEIQLMHQRAKWIQDARRRAFLHKLIAEIHTAEI [AZP-3601, M-PTH(1-14)/PTHrP(15-36)]” the half-life (PTX mice) was “equally short half-life as PTH (1-34)”, the “change in bone at the optimal dose” value (TPTX rats [1]) was “without producing any significant change in bone” and the “serum calcium at the highest dose” value (TPTX rats [2]) was “induced overt hypercalcemia”. For the same sequence, the “detectability in plasma post-dosing” value [3] was “detectable in plasma for only up to one hour post-dosing”, the “BMD of femur, tibia and L4 lumbar vertebra by DXA” value (Cynomolgus monkeys [4]) was “no evidence of any treatment-related effect” and the “histopathological examination of femur” value (Cynomolgus monkeys [4]) was “no evidence of any treatment-related effect”. The “anabolic bone biomarker P1NP” value (Cynomolgus monkeys [5]; [7]) was “no treatment-related changes; also recorded: no significant effect on either anabolic or catabolic bone biomarkers”, the “catabolic bone biomarker CTx” value (Cynomolgus monkeys [5]; [7]) was “no treatment-related changes; also recorded: no significant effect on either anabolic or catabolic bone biomarkers” and the “in-life BMD of femur, tibia and L4 lumbar vertebra by qCT” value (Cynomolgus monkeys [5]; Cynomolgus monkeys, 39-week study, versus pre-treatment values) was “no statistically significant changes in BMD”. The “histological examination of the femur” value (Cynomolgus monkeys [5]; Cynomolgus monkeys, week 39) was “no noteworthy findings”, the “bone mineral density (BMD)” value [6, 8] was “remains stable” and the “trabecular bone score (TBS)” value [6, 8] was “remains stable”. For the same sequence, the “mean bone markers relative to upper limit of normal” value ([6]; HP subjects, 84 days) was “never increased either mean bone marker above the upper limit of normal level”, the T-score [6, 9] was “remain stable” and the Z-score [6, 9] was “remain stable”. For the same sequence, the “serum calcium at highest dose levels” value (non-human primates) was “induced significant hypercalcemia”.
